# Measurements taken from PubChem BioAssay AID652226 (The Scripps Research Institute Molecular Screening Center, 2013).
# The source made the active and inactive calls.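 Rule for the calls: active = compounds blocking PP5 with IC50 under 10 µM; inactive = the rest.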
# Molecular target: Serine/threonine-protein phosphatase 5 (Homo sapiens) (UniProt P53041)
# Test: human PP5c inhibition, concentration series – biochemical, fluorescence, OMFP substrate, set 1, selectivity assay for PP1 inhibitor project, late-stage follow-up (AID 652226)
# Conditions: purified PP5c, OMFP dephosphorylation
# Serine/threonine-protein phosphatase 5 (Homo sapiens), sequence (P53041 whole entry, looked up): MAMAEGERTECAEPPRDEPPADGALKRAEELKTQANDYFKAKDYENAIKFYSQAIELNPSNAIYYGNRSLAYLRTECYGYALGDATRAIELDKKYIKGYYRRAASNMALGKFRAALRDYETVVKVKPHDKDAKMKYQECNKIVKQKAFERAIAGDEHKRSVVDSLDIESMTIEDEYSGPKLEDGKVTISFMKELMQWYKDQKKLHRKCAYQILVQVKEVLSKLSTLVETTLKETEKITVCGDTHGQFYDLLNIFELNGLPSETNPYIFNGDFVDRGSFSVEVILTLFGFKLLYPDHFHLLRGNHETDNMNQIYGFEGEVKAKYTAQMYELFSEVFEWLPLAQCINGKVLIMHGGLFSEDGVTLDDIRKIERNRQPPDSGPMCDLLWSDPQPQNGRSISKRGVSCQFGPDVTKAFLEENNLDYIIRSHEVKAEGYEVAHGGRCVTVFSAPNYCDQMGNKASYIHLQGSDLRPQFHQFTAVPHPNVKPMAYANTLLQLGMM
row,IC50,Structure (SMILES)
1,inactive,Oc1c(Cc2ccccn2)ccc2cccnc12
2,inactive,Oc1c(C(c2ccccn2)N2CCOCC2)cc(Cl)c2cccnc12 (stereo not drawn)
3,inactive,CN1CCN(C(c2ccccn2)c2ccc3cccnc3c2O)CC1 (stereo not drawn)
